The source of these data is ChEMBL document CHEMBL1641570, “New hydroxystilbenoid derivatives endowed with neuroprotective activity and devoid of interference with estrogen and aryl hydrocarbon receptor-mediated transcription” (Bioorg Med Chem, 2011).

The test system of series [1] is Ishikawa. As to the kind of experiment: Cytotoxicity against human Ishikawa cells by LDH release assay. It counts as cell-based.
A short description of series [2]: Antagonist activity at estrogen receptor in human Ishikawa cells assessed as inhibition of estradiol-induced alkaline phosphatase expression at 1 uM after 72 hrs relative to ICI182780. It counts as cell-based.
Series [3] is described as follows: Agonist activity at estrogen receptor in human Ishikawa cells assessed as increase of estradiol-induced alkaline phosphatase expression at 1 uM after 72 hrs relative to estradiol. It counts as cell-based. The settings on record: ishikawa, 72 h, 1 µM.
For series [4], the target named is T1, Estrogen receptor beta (Homo sapiens, UniProt Q92731). As to the kind of experiment: Antagonist activity at human ERbeta receptor expressed in human HEK293 cells co-expressing ERE assessed as inhibition of estradiol-induced of luciferase gene expression at 1 uM after 18 hrs relative to ICI182780. The format is cell-based. The settings on record: hek293, 18 h.

For series [5], the target named is T1, Estrogen receptor beta. The experiment in a line: Agonist activity at human ERbeta receptor expressed in human HEK293 cells co-expressing ERE assessed as increase of estradiol-induced luciferase gene expression at 1 uM after 18 hrs relative to estradiol. The format is cell-based.
Series [6] concerns the target T2, Estrogen receptor (Homo sapiens, UniProt P03372).
T2 sequence (P03372 whole entry): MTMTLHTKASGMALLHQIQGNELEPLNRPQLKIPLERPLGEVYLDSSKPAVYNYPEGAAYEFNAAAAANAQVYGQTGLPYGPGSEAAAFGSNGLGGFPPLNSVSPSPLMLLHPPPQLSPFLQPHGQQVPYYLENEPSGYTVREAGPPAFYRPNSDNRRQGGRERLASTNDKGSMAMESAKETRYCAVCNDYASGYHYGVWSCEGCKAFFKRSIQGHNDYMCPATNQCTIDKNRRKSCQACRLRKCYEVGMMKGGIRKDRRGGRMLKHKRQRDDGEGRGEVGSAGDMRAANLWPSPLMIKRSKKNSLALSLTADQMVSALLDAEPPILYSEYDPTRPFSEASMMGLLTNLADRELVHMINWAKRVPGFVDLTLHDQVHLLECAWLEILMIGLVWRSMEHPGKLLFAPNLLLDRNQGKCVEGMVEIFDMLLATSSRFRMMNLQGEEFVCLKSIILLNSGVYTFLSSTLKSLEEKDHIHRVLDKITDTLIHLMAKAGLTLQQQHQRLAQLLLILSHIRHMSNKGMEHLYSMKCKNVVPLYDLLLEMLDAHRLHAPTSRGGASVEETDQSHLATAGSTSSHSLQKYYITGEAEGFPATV
The experiment in a line: Antagonist activity at human ERalpha receptor expressed in human MCF7:D5L cells co-expressing ERE assessed as inhibition of estradiol-induced of luciferase gene expression at 1 uM after 18 hrs relative to ICI182780. It counts as cell-based.

The target in series [7] is T2, Estrogen receptor. The experiment in a line: Partial agonist activity at human ERalpha receptor expressed in human MCF7:D5L cells co-expressing ERE assessed as increase of estradiol-induced luciferase gene expression at 1 uM after 18 hrs relative to estradiol. The settings on record: 18 h, 1 µM. The format is cell-based.
Series [8] relates to HT-22. The experiment in a line: Neuroprotective activity in mouse HT22 cells assessed as protection against glutamate-induced oxytosis after 24 hrs by MTT assay. It counts as functional, cell-based. The settings on record: HT-22, 24 h. (Formazan colour is commonly taken as a measure of viable cells.)
The subject of series [9] is HT-22. The experiment in a line: Neuroprotective activity in mouse HT22 cells assessed as protection against glutamate-induced oxytosis after 24 hrs by MTT assay relative to resveratrol. It counts as functional.
Series [10] in a line: Cytotoxicity against mouse HT22 cells assessed as cell viability at 1 uM after 3 days by LDH release assay relative to control. The format is cell-based, HT-22. The settings on record: read-out: Activity.
The test system of series [11] is MCF7. As to the kind of experiment: Antiproliferative activity against human stradiol-stimulated MCF7 cells at 1 uM after 96 hrs by MTT assay. It counts as cell-based. The settings on record: mcf7, 96 h.
In series [12] the target is Aryl hydrocarbon receptor (Mus musculus) (UniProt P30561). As to the kind of experiment: Activity at AhR expressed in mouse H1L1.1c2 cells co-expressing XRE assessed as increase of benzo[b]fluoranthene-induced luciferase gene expression at 1 uM after 72 hrs.
Series [13] shares this target. The experiment in a line: Activity at AhR expressed in mouse H1L1.1c2 cells co-expressing XRE assessed as induction luciferase gene expression at 1 uM after 72 hrs relative to benzo[b]fluoranthene.
Series [14] deals with Ishikawa. The experiment in a line: Cytotoxicity against human Ishikawa cells at 1 uM by LDH release assay. The format is cell-based. (Release of lactate dehydrogenase indicates damage to the cell membrane.)

Chain of Aryl hydrocarbon receptor (Mus musculus) (P30561 whole entry, looked up): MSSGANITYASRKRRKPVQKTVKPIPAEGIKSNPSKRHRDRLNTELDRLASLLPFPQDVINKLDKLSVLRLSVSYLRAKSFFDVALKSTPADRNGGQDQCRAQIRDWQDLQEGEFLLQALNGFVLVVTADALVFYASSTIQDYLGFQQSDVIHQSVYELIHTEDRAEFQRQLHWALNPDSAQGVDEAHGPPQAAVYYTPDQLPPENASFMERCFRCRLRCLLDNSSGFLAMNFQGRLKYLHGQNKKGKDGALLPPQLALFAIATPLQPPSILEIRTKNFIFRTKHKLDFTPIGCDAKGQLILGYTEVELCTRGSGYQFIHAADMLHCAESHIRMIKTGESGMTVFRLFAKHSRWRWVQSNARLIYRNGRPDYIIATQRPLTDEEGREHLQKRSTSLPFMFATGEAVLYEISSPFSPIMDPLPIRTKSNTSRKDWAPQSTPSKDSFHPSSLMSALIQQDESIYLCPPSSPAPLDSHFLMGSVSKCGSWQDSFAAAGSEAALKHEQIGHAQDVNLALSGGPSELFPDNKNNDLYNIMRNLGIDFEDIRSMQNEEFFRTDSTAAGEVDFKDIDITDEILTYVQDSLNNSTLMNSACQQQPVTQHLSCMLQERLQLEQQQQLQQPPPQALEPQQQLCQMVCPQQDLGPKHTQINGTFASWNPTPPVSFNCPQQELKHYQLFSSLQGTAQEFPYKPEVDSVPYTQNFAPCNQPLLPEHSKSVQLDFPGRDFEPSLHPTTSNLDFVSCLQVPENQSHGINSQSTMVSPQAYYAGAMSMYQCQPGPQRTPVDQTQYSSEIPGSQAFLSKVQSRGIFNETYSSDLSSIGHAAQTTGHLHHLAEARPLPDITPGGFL
T1 sequence (Q92731 whole entry): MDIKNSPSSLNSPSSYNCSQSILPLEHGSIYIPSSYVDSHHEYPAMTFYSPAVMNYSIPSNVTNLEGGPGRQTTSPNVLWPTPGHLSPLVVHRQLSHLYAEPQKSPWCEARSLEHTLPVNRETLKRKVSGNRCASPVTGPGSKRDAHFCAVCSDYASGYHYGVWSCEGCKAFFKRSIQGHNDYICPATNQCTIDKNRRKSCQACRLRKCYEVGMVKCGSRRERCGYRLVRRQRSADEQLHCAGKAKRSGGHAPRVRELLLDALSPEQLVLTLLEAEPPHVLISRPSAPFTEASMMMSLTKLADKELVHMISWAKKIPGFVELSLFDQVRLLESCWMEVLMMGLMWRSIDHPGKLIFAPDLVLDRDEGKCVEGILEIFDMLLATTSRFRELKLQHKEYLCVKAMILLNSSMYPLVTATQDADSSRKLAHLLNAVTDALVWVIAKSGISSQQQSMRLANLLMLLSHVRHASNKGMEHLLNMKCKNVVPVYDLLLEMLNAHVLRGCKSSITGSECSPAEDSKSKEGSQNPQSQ

The EC50 is the midpoint of the concentration-response curve. Turning to `CCC(CC)c1cc(/C=C/c2cc(O)cc(O)c2)cc(C(CC)CC)c1O`, the Activity entry in series [1] is “Non-toxic”; in series [2] it was “Not Active”; in series [3] it was “Not Active”; in series [4], “Not Active”; in series [5] (hek293, 18 h, 1 µM), “Not Active”; in series [6] it was “Not Active”. In addition, the results for the Activity result in series [7], in series [11] and in [12] were “Not Active”, “Non-toxic” and 3%, respectively. Besides, the EC50 in series [8] turned out to be 30 nM. In addition, the “Ratio EC50” value in series [9] was 156. The percent cytotoxicity (LDH release relative to control) at 72 h, 1 µM in [10] is -6.7%. Besides, the Ratio in series [13] is on record as 1.9.

For the compound `Oc1ccc(/C=C/C=C/c2cc(O)cc(O)c2)cc1`, the Activity result was “Toxic” in series [14], “Not Active” in series [6], “Not Active” in series [7] and 1.7% in series [12]. Also, the activity at 18 h, 1 µM in series [5] (read-out: Activity) worked out at 66%. Also, in series [8], the 50% effective concentration (EC50) was determined as 3310 nM. Further, the “Ratio EC50” value in [9] is listed as 1.4. In addition, in series [10], the percent cytotoxicity (LDH release relative to control) at 72 h, 1 µM came to 8%.
